We go through 66 compounds from PubChem BioAssay AID2823 (Broad Institute, 2010).

Active and inactive are the calls of the source. No rule for the calls is given here. Where only a bound is given, the exact number is not on record here.

Usually IC50 stands for the point on the concentration scale where inhibition reaches its midpoint.

In the assay the target is RanGTP-importin-beta complex (human Ran / KPNB1). Kind of assay: Ran–importin-beta interaction inhibitors, confirmation, biochemical, FRET, CFP/YFP, cell-free homogeneous (AID 2823). As to conditions: CFP-Ran/YFP-importin-beta FRET ratio.
Regarding `CC1CCCCN1Cc1c(O)ccc2c(=O)c(-c3nc4ccccc4s3)coc12` (stereo unspecified), the IC50 was under 0.38 µM. With `COc1ccc(N2C(=O)c3ccccc3NC2c2cccnc2)cc1` (stereo unspecified), the IC50 was > 50 µM (inactive). Take `Oc1c(CN2CCN(c3ccc(F)cc3)CC2)cc(Cl)c2cccnc12`: the IC50 was > 50 µM (inactive).

For `CN(C)S(=O)(=O)c1cccc(NC(=O)CNC2CCCCC2)c1`, the IC50 was > 50 µM (inactive).

For `Cn1c(SCc2cccc([N+](=O)[O-])c2)nc2c(c1=O)SCC2`, the IC50 was > 50 µM (inactive). As for `COc1ccc2c(CC#N)c[nH]c2c1`, the IC50 is > 50 µM (inactive). In the case of `N#C/C(=C\c1ccc(N2CCOCC2)o1)C(=O)N1CCOCC1`, the IC50 is 4.66 µM.

`N#C/C(=C\c1ccc(N2CCOCC2)o1)C(=O)NC1CCCCC1`: the 50% inhibitory concentration (IC50) is 2.76 µM.

Consider `CC(C)CCNC(=O)C(c1ccco1)N(Cc1ccc(F)cc1)C(=O)c1snc(C(N)=O)c1N` (stereo unspecified), for which the IC50 is > 50 µM (inactive). As for `COc1ccc(-c2nc(NC(=O)c3n[nH]c(=O)c4ccccc34)sc2C)cc1`, the IC50 is > 50 µM (inactive). The figure for `Cc1cccc(C)c1OCC(=O)OC/C(O)=C(\C#N)c1nc2ccccc2[nH]1` is > 50 µM (inactive); for `COc1cccc(C(=O)c2cc3ccc(O)cc3oc2=O)c1` it is 26.9 µM; for `Cc1[nH]nc2c1C(c1ccoc1)C(C#N)=C(N)O2` (stereo unspecified) it is > 50 µM (inactive). On to `Cc1cc(C)c(C2=CC(c3ccccc3)n3ncnc3N2)cc1C` (stereo unspecified), for which the IC50 was 38.5 µM. The figure for `CC(=O)c1cc(C#N)c(N2CC(C)OC(C)C2)nc1C` (stereo unspecified) is > 50 µM (inactive); for `CCOC(=O)/C=C1\SCC(=O)N1CC(=O)c1ccc[nH]1` it is > 50 µM (inactive); for `CCC(=O)N(C)/C=C1\Sc2ccccc2C1=O` it is > 50 µM (inactive). Regarding `CCOC(=O)c1c(NC(=O)C2CCCCC2)sc2c1CCN(C(C)C)C2`, the IC50 is > 50 µM (inactive). The same measure for `Cc1ccc(NC(=O)C2CCN(S(=O)(=O)c3ccc(Cl)c(C(F)(F)F)c3)CC2)nc1`: > 50 µM (inactive); for `O=C1C(=O)N(CCS(=O)(=O)c2ccccc2)c2ccc(Cl)cc21`: > 50 µM (inactive); for `CCC(=O)Nc1cccc(NC(=S)NC(=O)c2cccs2)c1`: > 50 µM (inactive).

For the compound `O=C1NC(=S)S/C1=C1\Sc2ccccc2N1CCCS(=O)(=O)O`, the 50% inhibitory concentration (IC50) is 12.5 µM. `Cc1ccc(S(=O)(=O)NCCc2cn3nc(C)c(C)nc3n2)cc1C`: the IC50 is 33.3 µM.

Consider `CC1CCN(c2cc(=O)n(C3CCCCC3)c(=O)[nH]2)CC1`, for which the IC50 is > 50 µM (inactive). Regarding `O=C(O)C1CCCC2CN3CCc4c([nH]c5ccccc45)C3C(O)C21` (stereo unspecified), the IC50 is > 50 µM (inactive). As to `O=C1C=C(Nc2ccc(Cl)cc2Cl)CC(c2ccco2)C1` (stereo unspecified), the IC50 is > 50 µM (inactive). For `Nc1c(C(=O)OC2CCCCC2)c2nc3ccccc3nc2n1CC1CCCO1` (stereo unspecified), the IC50 was 27.1 µM. The same measure for `c1cncc(Nc2c3ccccc3nc3ccccc23)c1`: > 50 µM (inactive); for `CCOCCCn1c(=N)c(C(=O)NCc2ccc3c(c2)OCO3)cc2c(=O)n3cccc(C)c3nc21`: 14.9 µM; for `N#CC1=C(N)SC(N)=C(C#N)C1c1cccc(Oc2ccccc2)c1`: > 50 µM (inactive).

On to `C=CCn1c(SCCOc2ccc(OC)cc2)nnc1C(CO)NC(=O)c1ccc(OC)cc1` (stereo unspecified), for which the IC50 is > 50 µM (inactive). `Cc1cc(C(=O)O)ccc1-c1ccc(/C=C2\NC(=O)N(Cc3ccccc3Cl)C2=O)o1`: the IC50 is 10.7 µM. With `CC(=O)Oc1cc2oc(=O)cc(C)c2cc1OC(C)=O`, the IC50 was 24.7 µM. Regarding `Cc1cc2c(c(=O)n1Cc1cccnc1)C(Cc1ccccc1)C(C#N)=C(N)O2` (stereo unspecified), the IC50 is > 50 µM (inactive). On to `CCOC(=O)c1c(NC(=O)Cc2ccccc2)sc2c1CCN(CC)C2`, for which the IC50 is > 50 µM (inactive). The same measure for `CCOC(=O)c1c(N)n(CCN2CCCCC2)c2nc3ccccc3nc12`: 32.3 µM; for `O=c1cc(CN2CCN(Cc3ccccc3)CC2)c2ccc(O)cc2o1`: 11.1 µM.

`Cc1cc(N2C(=O)C(O)=C(C(=O)c3cc4ccccc4o3)C2c2cccc(Cl)c2)no1` (stereo unspecified): the IC50 was 36 µM. `CCc1ccc(C2C(C#N)=C(N)SC(N)=C2C#N)cc1`: the IC50 was > 50 µM (inactive).

With `O=c1c2ccccc2sc2ccc(C#CC3(O)CCCCC3)cc12`, the 50% inhibitory concentration (IC50) is 23.1 µM. Consider `CCOC(=O)c1ccccc1NC(=O)COC(=O)C(CCSC)NC(=O)COc1ccccc1` (stereo unspecified), for which the IC50 was > 50 µM (inactive). As for `COC(=O)C1=CN(Cc2ccccc2)C=C(C(=O)OC)C1c1cc(F)ccc1F`, the IC50 was 15.9 µM.

Turning to `CCOc1ccc2nc(SCC(=O)NCc3ccc4c(c3)OCO4)[nH]c2c1`, the IC50 is > 50 µM (inactive). In the case of `CCN1CCc2c(sc(NC(=O)C3CCCCC3)c2C(=O)OC)C1`, the IC50 was > 50 µM (inactive). Consider `CC1=Nc2ccccc2/C1=C\c1nc(-c2ccc(F)cc2)oc1O`, for which the IC50 was > 50 µM (inactive).

Consider `CCC(=O)Nc1ccc(N/C(N)=N/c2nc(C)cc(C)n2)cc1`, for which the IC50 is > 50 µM (inactive).

For `CCCCN(C)C(=O)c1cccc(OC2CCN(CC(C)(C)C)CC2)c1`, the IC50 is > 50 µM (inactive).

Consider `Cc1ccc(OCc2nnc(SCC(=O)CC(=O)Nc3ccccc3)o2)cc1`, for which the IC50 is > 50 µM (inactive).

Regarding `Cc1cc(C)c(C#N)c(Nc2ccccc2C)n1`, the IC50 is > 50 µM (inactive). The figure for `CS(=O)(=O)c1nsc2nc(=O)c(/C=C3\C=Nc4ccccc43)c(N)n12` is 15.1 µM; for `CSc1nc(-c2ccc(N(C)C)cc2)c(C#N)c(=O)n1C` it is > 50 µM (inactive); for `CCOC(=O)c1c(N)n(CCOC(=O)c2cccs2)c2nc3ccccc3nc12` it is 39.3 µM. The figure for `CCOC(=O)/C(C#N)=C/c1c(N2CCN(c3ccc(OC)cc3)CC2)nc2c(C)cccn2c1=O` is > 50 µM (inactive). The same measure for `Cc1ccc(-c2cc3nc(-c4ccccc4)cc(N4CCC5(CC4)OCCO5)n3n2)cc1`: 44 µM. Consider `CC1C2(C)OC(=N)C(C#N)(C(C)O2)C1(C#N)C#N` (stereo unspecified), for which the IC50 was 44.2 µM. Consider `CCOCCCNC(=O)/C(C#N)=C/c1cc(Br)c(O)c(Br)c1`, for which the half-inhibitory concentration (IC50) is 12.5 µM. Regarding `O=C(Nc1cccc(F)c1)c1ccc(S(=O)(=O)NCC2CCCO2)cc1` (stereo unspecified), the IC50 was > 50 µM (inactive).

On to `C=CCn1c(N)c(C(=O)OC(C)CC)c2nc3ccccc3nc21` (stereo unspecified), for which the IC50 was 19.8 µM.

Regarding `CC1CC1c1ccc(/C=C(\C#N)C(=O)Nc2ccc(Cl)cc2)o1` (stereo unspecified), the IC50 was > 50 µM (inactive).

`COc1ccc(CNc2ccc3c(c2)ncn3-c2ccccc2OC)cc1`: the IC50 is > 50 µM (inactive). In the case of `CC(C)CCNC(=O)C(c1ccco1)N(Cc1ccccc1)C(=O)c1snc(C(N)=O)c1N` (stereo unspecified), the IC50 is > 50 µM (inactive). The same measure for `N#CCCN(C(=O)Nc1ccc(Cl)cc1)c1ccccc1`: > 50 µM (inactive); for `CCN(CC)Cc1c(O)ccc2c(C)c(CC(=O)OC)c(=O)oc12`: 14 µM; for `O=C(CN1CCOCC1)NNc1c2ccccc2nc2ccccc12`: > 50 µM (inactive). On to `CCCOC(=O)CSC1=C(C#N)C(c2ccccc2OCC)C(C#N)C(=O)N1` (stereo unspecified), for which the IC50 was > 50 µM (inactive). Consider `O=C(NCC1CCN(Cc2ccccc2Cl)CC1)Nc1ccccc1F`, for which the IC50 is > 50 µM (inactive).
